Tests used:
[1] = molecular target: T1, CETP (Homo sapiens, UniProt P11597); assay: CETP fluorescence test with enriched CETP; format: biochemical; settings: enriched CETP fraction from human plasma; transfer of fluorescent cholesterol ester between liposomes; 37° C. for 4 h
T1 construct: CETP is obtained in partially purified form from human plasma by differential centrifugation and column chromatography and used for the test; from tissue; host or cells: human plasma
T1 sequence (P11597 18-493): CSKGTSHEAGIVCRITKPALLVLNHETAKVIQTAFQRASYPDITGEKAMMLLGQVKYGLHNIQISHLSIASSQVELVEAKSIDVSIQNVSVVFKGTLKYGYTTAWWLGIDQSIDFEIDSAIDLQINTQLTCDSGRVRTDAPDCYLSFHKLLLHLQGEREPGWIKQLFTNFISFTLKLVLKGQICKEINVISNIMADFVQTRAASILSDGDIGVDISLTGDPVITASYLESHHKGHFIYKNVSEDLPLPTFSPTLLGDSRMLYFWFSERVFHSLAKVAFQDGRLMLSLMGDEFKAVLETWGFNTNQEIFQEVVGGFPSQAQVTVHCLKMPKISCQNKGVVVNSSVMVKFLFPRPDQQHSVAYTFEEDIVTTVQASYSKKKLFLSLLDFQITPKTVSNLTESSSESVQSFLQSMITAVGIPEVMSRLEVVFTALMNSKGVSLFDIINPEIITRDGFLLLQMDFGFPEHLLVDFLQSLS
Experimental: (§1) CETP is obtained in partially purified form from human plasma by differential centrifugation and column chromatography and used for the test. To this end, human plasma is adjusted to a density of 1.21 g per ml using NaBr and centrifuged at 4° C. at 50 000 rpm for 18 h. The bottom fraction (d>1.21 g/ml) is applied to a Phenyl-Sepharose 26/10 HP fast flow-column (Pharmacia), washed with PBS buffer and then eluted with distilled water. 10 parts of PBS buffer and 1% (w/v) BSA are added to the eluate. The CETP-active fractions are pooled.
Measurement of the CETP-catalyzed transfer of a fluorescent cholesterol ester between liposomes [modified according to the procedure of Bisgaier et al., J. Lipid Res. 34, 1625 (1993)]:
For the production of the donor liposomes, 1 mg of cholesteryl 4,4-difluoro-5,7-dimethyl-4-bora-3a,4a-diaza-s-indacene-3-dodecanoate (cholesteryl BODIPY® FL C12, Molecular Probes) is dissolved in 2 ml of chloroform with 5.35 mg of triolein and 6.67 mg of phosphatidylcholine. The solvent is removed at medium temperature in a SpeedVac and the residue is dried under high vacuum for 1 h. The residue is then dissolved in 600 μl of dioxane with gentle warming in an ultrasonic bath and this solution is added very slowly with ultrasonication to 63 ml of 50 mM Tris/HCl, 150 mM NaCl, 2 mM EDTA buffer pH 7.3 at room temperature. The suspension is then ultrasonicated under an N2 atmosphere for 30 minutes in the Branson ultrasonic bath at about 50 watts, the temperature being kept at about 20° C.
The acceptor liposomes are obtained analogously from 86 mg of cholesteryl oleate, 20 mg of triolein and 100 mg of phosphatidylcholine dissolved in 1.2 ml of dioxane and 114 ml of the above buffer by ultrasonication at 50 watts (20° C.) for 30 minutes.
For testing, a test mix consisting of 1 part of above buffer, 1 part of donor liposomes and 2 parts of acceptor liposomes is used.
50 μl of test mix are treated with 48 μl of enriched CETP fraction (1-3 μg), obtained from human plasma by means of hydrophobic chromatography, and 2 μl of a solution of the substance to be investigated in DMSO and incubated at 37° C. for 4 h.
The change in the fluorescence at 485/535 nm is a measure of the CE transfer; the inhibition of the transfer in comparison to the control batch without substance is determined.

[2] = molecular target: T1, CETP; assay: CETP-SPA test; format: biochemical; settings: transfer of 3H-cholesterol ester from human HDL to biotinylated LDL; 37° C. for 18 h
Experimental: as §1
For testing of the CETP activity, the transfer of ^3H-cholesterol ester from human HD lipoproteins to biotinylated LD lipoproteins is measured. The reaction is ended by addition of streptavidin-SPA® beads (Amersham) and the transferred radioactivity is determined directly in a liquid scintillation counter.
In the test batch, 10 μl of HDL-3H-cholesterol ester (about 50 000 cpm) are incubated at 37° C. for 18 h with 10 μl of biotin-LDL (Amersham) in 50 mM Hepes/0.15 M NaCl/0.1% bovine serum albumin (RSA)/0.05% NaN3 pH 7.4 containing 10 μl of CETP (1 mg/ml) and 3 μl of a solution of the substance to be tested (dissolved in 10% DMSO/1% RSA). 200 μl of the SPA-streptavidin bead solution (TRKQ 7005) are then added, incubated further with shaking for 1 h and then measured in a scintillation counter. Corresponding incubations with 10 μl of buffer, 10 μl of CETP at 4° C. and 10 μl of CETP at 37° C. serve as controls.
The activity transferred in the control batches with CETP at 37° C. is rated as 100% transfer. The substance concentration at which this transfer is reduced to half is specified as the IC50 value.

| SMILES | IC50 [1] [nM] | IC50 [2] [nM] |
| --- | --- | --- |
| CC(C)c1cc2c(c(C3CCCC3)c1Cc1ccc(C(F)(F)F)cc1)[C@@H](O)CC(C)(C)O2 [Example 26, (4S)-5-Cyclopentyl-7-isopropyl-2,2-dimethyl-6-[4-(trifluoromethyl)benzyl]chroman-4-ol] | 48 |  |
| CC(C)c1cc2c(c(-c3ccc(F)cc3)c1Cc1ccc(C(C)(C)C)cc1)[C@@H](O)CC(C)(C)O2 [Example 17, (4S)-6-(4-tert-Butylbenzyl)-5-(4-fluorophenyl)-7-isopropyl-2,2-dimethylchroman-4-ol] | 70 |  |
| CC(C)c1cc2c(c(C3=CCCC3)c1[C@@H](O)c1ccc(C(F)(F)F)cc1)[C@@H](O)CC(C)(C)O2 [Example 22, (4S)-5-Cyclopent-1-en-1-yl-6-{(S)-hydroxy[4-(trifluoromethyl)phenyl]methyl}-7-isopropyl-2,2-di-methylchroman-4-ol] | 51 | 57 |
| O[C@@H](c1ccc(C(F)(F)F)cc1)c1c(C2CCCC2)cc2c(c1-c1ccc(F)cc1)[C@@H](O)CC1(CCC1)O2 [Example 45] | 26 | 21 |
| CC(C)c1cc2c(c(-c3ccc(F)cc3)c1C(=O)c1ccc(OC(F)(F)F)cc1)[C@@H](O)CC(C)(C)O2 [Example 10, [(4S)-5-(4-Fluorophenyl)-4-hydroxy-7-isopropyl-2,2-dimethyl-3,4-dihydro-2H-chromen-6-yl][4-(trifluoromethoxy)phenyl]methanone] | 93 |  |
| CC(C)c1cc2c(c(C3CCCC3)c1[C@@H](O)c1ccc(C(F)(F)F)cc1)[C@@H](O)CC(C)(C)O2 [Example 24, (4S)-5-Cyclopent-1-yl-6-{(S)-hydroxy[4-(trifluoromethyl)phenyl]methyl}-7-isopropyl-2,2-dimethylchroman-4-ol] | 30 | 16 |
| CC(C)c1cc2c(c(-c3ccc(F)cc3)c1C(=O)c1ccc(C(C)(C)C)cc1)[C@@H](O)CC(C)(C)O2 [Example 14, (4-tert-Butylphenyl)[(4S)-5-(4-fluorophenyl)-4-hydroxy-7-isopropyl-2,2-dimethyl-3,4-dihydro-2H-chromen-6-yl]methanone] | 176 |  |
| CC(C)c1cc2c(c(C3=CCCCC3)c1[C@@H](O)c1ccc(C(F)(F)F)cc1)[C@@H](O)CC(C)(C)O2 [Example 20, (4S)-5-Cyclohex-1-en-1-yl-6-{(S)-hydroxy[4-(trifluoromethyl)phenyl]methyl}-7-isopropyl-2,2-di-methylchroman-4-ol] | 49 |  |
| CC1(C)C[C@H](O)c2c(cc(C3CCCC3)c([C@@H](O)c3ccc(C(F)(F)F)cc3)c2-c2ccc(F)cc2)O1 [Example 1, (4S)-7-Cyclopentyl-5-(4-fluorophenyl)-6-{(S)-hydroxy[4-(trifluoromethyl)phenyl]methyl}-2,2-dimethylchroman-4-ol] | 340 |  |
| O[C@H]1CC2(CCC2)Oc2cc(C3CCCC3)c(C(F)c3ccc(OC(F)(F)F)cc3)c(-c3ccc(F)cc3)c21 (stereo partly drawn) [Example 54] | 39 |  |
| CC(C)c1cc2c(c(-c3ccc(F)cc3)c1[C@H](F)c1ccc(C(F)(F)F)cc1)[C@@H](O)CC(C)(C)O2 [Example 8, (4S)-5-(4-fluorophenyl)-6-{(R)-fluoro[4-(trifluoromethyl)phenyl]methyl}-7-isopropyl-2,2-dimethylchroman-4-ol] | 373 |  |
| CC(C)c1cc2c(c(-c3ccccc3)c1C(=O)c1ccc(OC(F)(F)F)cc1)[C@@H](O)CC(C)(C)O2 [Example 18, [(4S)-4-Hydroxy-7-isopropyl-2,2-dimethyl-5-phenyl-3,4-dihydro-2H-chromen-6-yl][4-(trifluoromethoxy)phenyl]methanone] | 792 |  |

Now from value to compound:

| IC50 [1] [nM] | IC50 [2] [nM] | SMILES |
| --- | --- | --- |
| 59 | 16 | CC(C)c1cc2c(c(-c3ccc(F)cc3)c1C(=O)c1ccc(C(C)(C)C)cc1)[C@@H](O)CC1(CCC1)O2 [Example 33, (4-tert-Butylphenyl)[(4S)-5-(4-fluorophenyl)-4-hydroxy-7-isopropyl-3,4-dihydrospiro[chromen-2,1′-cyclobutan]-6-yl]methanone] |
| 50 |  | CC(C)c1cc2c(c(-c3ccc(F)cc3)c1C(F)c1ccc(OC(F)(F)F)cc1)[C@@H](O)CC1(CCC1)O2 (mixture of isomers) [Example 40, (4S)-5-(4-Fluorophenyl)-6-{fluoro[4-(trifluoromethoxy)phenyl]methyl}-7-isopropyl-3,4-dihydrospiro[chromen-2,1′-cyclobutan]-4-ol] |
| 14 | 5 | CC(C)c1cc2c(c(-c3ccc(F)cc3)c1[C@@H](O)c1ccc(C(C)(C)C)cc1)[C@@H](O)CC1(CCC1)O2 [Example 34, (4S)-6-[(S)-(4-tert-Butylphenyl)(hydroxy)methyl]-5-(4-fluorophenyl)-7-isopropyl-3,4-dihydro-spiro[chromen-2,1′-cyclobutan]-4-ol] |
| 33 | 14 | CC(C)(C)c1ccc([C@H](O)c2c(C3CCCC3)cc3c(c2-c2ccc(F)cc2)[C@@H](O)CC2(CCC2)O3)cc1 [Example 48] |
| 53 | 20 | CC(C)c1cc2c(c(-c3ccc(F)cc3)c1[C@H](F)c1ccc(C(F)(F)F)cc1)[C@@H](O)CC1(CCC1)O2 [Example 31, (4S)-5-(4-fluorophenyl)-6-{(R)-fluoro[4-(trifluoromethyl)phenyl]methyl}-7-isopropyl-3,4-dihydro-spiro[chromen-2,1′-cyclobutan]-4-ol] |
| 300 | 68 | CC(C)c1cc2c(c(-c3ccc(F)cc3)c1[C@H](F)c1ccc(C(F)(F)F)cc1)[C@@H](O)CC1(CC1)O2 [Example 58] |
| 27 | 4 | CC(C)c1cc2c(c(-c3ccc(F)cc3)c1[C@@H](O)c1ccc(C(F)(F)F)cc1)[C@@H](O)CC1(CC1)O2 [Example 55] |
| 63 | 51 | CC(C)c1cc2c(c(-c3ccc(F)cc3)c1[C@@H](O)c1ccc(OC(F)(F)F)cc1)[C@@H](O)CC(C)(C)O2 [Example 11, (4S)-5-(4-Fluorophenyl)-6-{(S)-hydroxy[4-(trifluoromethoxy)phenyl]methyl}-7-isopropyl-2,2-di-methylchroman-4-ol] |
| 38 |  | CC(C)c1cc2c(c(-c3ccc(F)cc3)c1[C@@H](O)c1ccc(C(C)(C)C)cc1)[C@@H](O)CC(C)(C)O2 [Example 15, (4S)-6-[(S)-(4-tert-Butylphenyl)(hydroxy)methyl]-5-(4-fluorophenyl)-7-isopropyl-2,2-dimethyl-chroman-4-ol] |
|  | 400 | CC(C)(C)c1ccc([C@@H](O)c2c(C3CCCC3)cc3c(c2-c2ccc(F)cc2)[C@@H](O)CC2(CCC2)O3)cc1 [Example 49] |
| 263 |  | CC(C)c1cc2c(c(-c3ccc(F)cc3)c1[C@H](O)c1ccc(C(F)(F)F)cc1)[C@@H](O)CC1(CC1)O2 [Example 56] |

Source: patent publication US8227511B2, “Substituted chromanol derivatives and their use” (Bayer Intellectual Property GmbH, priority 2006, dated 2012)
